Source: patent US8192962B2, “Processes for detecting toxic substances” (Daikin Industries, Ltd., priority 2001, dated 2012)

System: Transport facilitation protein genes
Assay: DNA chip mRNA expression in yeast, transport facilitation protein genes (Table 5)
Format: cell-based, Saccharomyces cerevisiae S288C
Summary of the method: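 Expression change after 2 h toxicant exposure (growth-inhibiting, sub-lethal) of log-phase S. cerevisiae S288C at 25° C. Oligo-dT-purified mRNA was labeled with Cy3-dUTP or Cy5-dUTP and hybridized >12 h at 65° C. to a genome-wide chip; ratio of scanned fluorescence to control.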

Measured: The level of expressed mRNA in the presence of chemical substance/The level of expressed mRNA in the absence of chemical substance

Na2As [(1)]
1.5: yeast gene YGR096W
6.3: yeast gene YBR294W
1.3: yeast gene YDR086C | yeast gene YDR298C
2.5: yeast gene YGL006W | yeast gene YGR055W
0.6: yeast gene YDR038C | yeast gene YDR039C | yeast gene YGL008C
0.8: yeast gene YBL099W | yeast gene YBR127C | yeast gene YBR207W | yeast gene YCR024C-A | yeast gene YDL128W | yeast gene YDR345C | yeast gene YDR387C | yeast gene YGL104C | yeast gene YGR065C | yeast gene YGR191W
1.4: yeast gene YBR295W | yeast gene YDL198C
2.8: yeast gene YDR342C
0.3: yeast gene YEL065W
0.9: yeast gene YBR132C | yeast gene YGL167C
1.6: yeast gene YBR052C | yeast gene YCL038C | yeast gene YCR098C | yeast gene YER053C | yeast gene YFL054C
1.2: yeast gene YDL210W | yeast gene YDR343C | yeast gene YEL027W | yeast gene YFL011W
1.1: yeast gene YBR068C | yeast gene YBR298C | yeast gene YCL025C | yeast gene YGR138C | yeast gene YGR197C
1.0: yeast gene YBL030C | yeast gene YDL245C | yeast gene YGR082W
1.9: yeast gene YBR293W
0.7: yeast gene YCR037C | yeast gene YDR270W | yeast gene YDR497C | yeast gene YEL063C | yeast gene YFL041W | yeast gene YFL050C | yeast gene YGL255W
